Test results reported in patent publication US20210355121A1, “FUSED TRICYCLIC KRAS INHIBITORS” (Incyte Corporation, priority 2020, published 2021).

Tests used:
[1] = system: MIA PaCa-2 (KRAS G12C) cells; assay: KRAS_G12C cellular pERK HTRF assay; type: cell-based, human; set-up: G12C_pERK (KRAS_G12C pERK assay IC50): scale not given here; conditions: phospho-ERK1/2 HTRF, 4 hours incubation; for IC50: Homo sapiens, MIA PaCa-2, read-out: G12C_pERK (KRAS_G12C pERK assay IC50)
Procedure: MIA PaCa-2 (KRAS G12C; ATCC® CRL-1420), A427 (KRAS G12D; ATCC® HTB53), HPAF-II (KRAS G12D; ATCC® CRL-1997) and NCI-H838 (KRAS WT; ATCC® CRL-5844) cells are purchased from ATCC and maintained in RPMI 1640 media supplemented with 10% FBS (Gibco/Life Technologies). The cells are plated at 5000 cells per well (8 uL) into Greiner 384-well low volume, flat-bottom, tissue culture treated white plates and incubated overnight at 37° C., 5% CO2. The next morning, test compound stock solutions are diluted in media at 3× the final concentration, and 4 uL are added to the cells. The plate is mixed by gentle rotation for 30 seconds (250 rpm) at room temperature. The cells are incubated with the KRAS G12C and G12D compounds for 4 hours or 2 hours respectively at 37° C., 5% CO2.
4 uL of 4× lysis buffer with blocking reagent (1:25) (Cisbio) are added to each well and plates are rotated gently (300 rpm) for 30 minutes at room temperature. 4 uL per well of Cisbio anti Phospho-ERK 1/2 d2 is mixed with anti Phospho-ERK 1/2 Cryptate (1:1) are added to each well, mixed by rotation and incubated overnight in the dark at room temperature. Plates are read on the Pherastar plate reader at 665 nm and 620 nm wavelengths. IC50 determination is performed by fitting the curve of inhibitor percent inhibition versus the log of the inhibitor concentration using the GraphPad Prism 7 software.

KRAS G12C = KRAS G12C (Homo sapiens, UniProt P01116, G12C); assay: KRAS G12C GDP-GTP exchange assay (bodipy-GDP for GppNHp, with SOS1); type: biochemical; conditions: 2.5 nM bodipy-loaded KRAS G12C, 2 hours pre-incubation with inhibitor, 2 hours after GppNHp-SOS1; read-out: G12C_exchange (KRAS_G12C exchange assay IC50)
Procedure: The inhibitor potency of the exemplified compounds was determined in a fluorescence based guanine nucleotide exchange assay, which measures the exchange of bodipy-GDP (fluorescently labeled GDP) for GppNHp (Non-hydrolyzable GTP analog) to generate the active state of KRAS in the presence of SOS1 (guanine nucleotide exchange factor). Inhibitors were serially diluted in DMSO and a volume of 0.1 μL was transferred to the wells of a black low volume 384-well plate. 5 μL/well volume of bodipy-loaded KRAS G12C diluted to 5 nM in assay buffer (25 mM Hepes pH 7.5, 50 mM NaCl, 10 mM MgCl2 and 0.01% Brij-35) was added to the plate and pre-incubated with inhibitor for 2 hours at ambient temperature. Appropriate controls (enzyme with no inhibitor or with a G12C inhibitor (AMG-510)) were included on the plate. The exchange was initiated by the addition of a 5 μL/well volume containing 1 mM GppNHp and 300 nM SOS1 in assay buffer. The 10 μL/well reaction concentration of the bodipy-loaded KRAS G12C, GppNHp, and SOS1 were 2.5 nM, 500 uM, and 150 nM, respectively. The reaction plates were incubated at ambient temperature for 2 hours, a time estimated for complete GDP-GTP exchange in the absence of inhibitor. For the KRAS G12D and G12V mutants, similar guanine nucleotide exchange assays were used with 2.5 nM as final concentration for the bodipy loaded KRAS proteins and with 4 hours and 3 hours incubation after adding GppNHp-SOS1 mixture for G12D and G12V respectively. A cyclic peptide described to selectively bind G12D mutant (Sakamoto et al., BBRC 484.3 (2017), 605-611) or internal compounds with confirmed binding were used as positive controls in the assay plates. Fluorescence intensities were measured on a PheraStar plate reader instrument (BMG Labtech) with excitation at 485 nm and emission at 520 nm.
Either GraphPad prism or XLfit was used to analyze the data. The IC50 values were derived by fitting the data to a four parameter logistic equation producing a sigmoidal dose-response curve with a variable Hill coefficient. Prism equation: Y=Bottom+(Top−Bottom)/(1+10^((Log IC50−X)*Hill slope)); XLfit equation: Y=(A+((B−A)/(1+((X/C)^D)))) where X is the logarithm of inhibitor concentration and Y is the response.

Chain of KRAS G12C (P01116 1-188 isoform P01116-2 G12C): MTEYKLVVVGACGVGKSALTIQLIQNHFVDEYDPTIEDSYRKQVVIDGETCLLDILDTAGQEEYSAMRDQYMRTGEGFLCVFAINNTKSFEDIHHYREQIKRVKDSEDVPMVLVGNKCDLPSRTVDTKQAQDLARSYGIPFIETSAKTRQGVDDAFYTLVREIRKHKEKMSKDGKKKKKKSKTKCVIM

IC50 [1] [nM]	IC50 (KRAS G12C) [nM]	G12C_pERK (KRAS_G12C pERK assay IC50) [1]	Structure (SMILES)
≤ 100	≤ 100	–	Cc1cc2[nH]ncc2c(-c2c(C)cc3c(nc(N4CC(C)(N(C)C)C4)c4cnn([C@H]5CCN(C(=O)/C=C/CF)[C@H](CC#N)C5)c43)c2F)c1C (single isomer, unassigned) [Example 64a]
≤ 100	≤ 100	–	COC/C=C/C(=O)N1CC[C@H](n2ncc3c(N4CC(C)(N(C)C)C4)nc4c(F)c(-c5c(C)c(C)cc6[nH]ncc56)c(C)cc4c32)C[C@H]1CC#N (single isomer, unassigned) [Example 65a]
≤ 100	≤ 100	–	Cc1cc2[nH]ncc2c(-c2c(C)cc3c(nc(N4CC(C)(N(C)C)C4)c4cnn([C@H]5CCN(C(=O)/C=C/CN(C)C)[C@H](CC#N)C5)c43)c2F)c1C (single isomer, unassigned) [Example 66a]
≤ 100	≤ 100	–	Cc1cc2[nH]ncc2c(-c2c(C)cc3c(nc(O[C@@H](C)[C@@H]4CCCN4C)c4cnn([C@H]5CCN(C(=O)/C=C/CF)[C@H](CC#N)C5)c43)c2F)c1C (single isomer, unassigned) [Example 67b]
≤ 100	≤ 100	–	C=C(F)C(=O)N1CC[C@H](n2ncc3c(O[C@@H](C)[C@@H]4CCCN4C)nc4c(F)c(-c5c(C)c(C)cc6[nH]ncc56)c(C)cc4c32)C[C@H]1CC#N (single isomer, unassigned) [Example 68b]
≤ 100	≤ 100	–	CC#CC(=O)N1CC[C@H](n2ncc3c(O[C@@H](C)[C@@H]4CCCN4C)nc4c(F)c(-c5c(C)c(C)cc6[nH]ncc56)c(C)cc4c32)C[C@H]1CC#N (single isomer, unassigned) [Example 69b]
≤ 100	≤ 100	–	COC/C=C/C(=O)N1CC[C@H](n2ncc3c(O[C@@H](C)[C@@H]4CCCN4C)nc4c(F)c(-c5c(C)c(C)cc6[nH]ncc56)c(C)cc4c32)C[C@H]1CC#N (single isomer, unassigned) [Example 70b]
≤ 100	≤ 100	–	Cc1cc2[nH]ncc2c(-c2c(C)cc3c(nc(O[C@@H](C)[C@@H]4CCCN4C)c4cnn([C@H]5CCN(C(=O)/C=C/CN(C)C)[C@H](CC#N)C5)c43)c2F)c1C (single isomer, unassigned) [Example 71b]
≤ 100	≤ 100	–	Cc1cc2[nH]ncc2c(-c2c(Cl)cc3c(nc(N4CC(N(C)C)C4)c4cnn([C@H]5CCN(C(=O)/C=C/CF)[C@H](CC#N)C5)c43)c2F)c1C (single isomer, unassigned) [Example 72a]
≤ 100	≤ 100	–	C=C(F)C(=O)N1CC[C@H](n2ncc3c(N4CC(N(C)C)C4)nc4c(F)c(-c5c(C)c(C)cc6[nH]ncc56)c(Cl)cc4c32)C[C@H]1CC#N (single isomer, unassigned) [Example 73a]
≤ 100	≤ 100	–	CC#CC(=O)N1CC[C@H](n2ncc3c(N4CC(N(C)C)C4)nc4c(F)c(-c5c(C)c(C)cc6[nH]ncc56)c(Cl)cc4c32)C[C@H]1CC#N (single isomer, unassigned) [Example 74a]
≤ 100	≤ 100	–	COC/C=C/C(=O)N1CC[C@H](n2ncc3c(N4CC(N(C)C)C4)nc4c(F)c(-c5c(C)c(C)cc6[nH]ncc56)c(Cl)cc4c32)C[C@H]1CC#N (single isomer, unassigned) [Example 75a]
≤ 100	≤ 100	–	Cc1cc2[nH]ncc2c(-c2c(Cl)cc3c(nc(N4CC(N(C)C)C4)c4cnn([C@H]5CCN(C(=O)/C=C/CN(C)C)[C@H](CC#N)C5)c43)c2F)c1C (single isomer, unassigned) [Example 76a]
≤ 100	≤ 100	–	C=C(F)C(=O)N1CC[C@H](n2ncc3c(OCC4CCCN4C)nc4c(F)c(-c5c(C)c(C)cc6[nH]ncc56)c(Cl)cc4c32)C[C@H]1CC#N (single isomer, unassigned) [Example 77a]
≤ 100	≤ 100	–	CC#CC(=O)N1CC[C@H](n2ncc3c(OC[C@@H]4CCCN4C)nc4c(F)c(-c5c(C)c(C)cc6[nH]ncc56)c(Cl)cc4c32)C[C@H]1CC#N (single isomer, unassigned) [Example 78a]
≤ 100	≤ 100	–	COC/C=C/C(=O)N1CC[C@H](n2ncc3c(OC[C@@H]4CCCN4C)nc4c(F)c(-c5c(C)c(C)cc6[nH]ncc56)c(Cl)cc4c32)C[C@H]1CC#N (single isomer, unassigned) [Example 79a]
≤ 100	≤ 100	–	Cc1cc2[nH]ncc2c(-c2c(Cl)cc3c(nc(OC[C@@H]4CCCN4C)c4cnn([C@H]5CCN(C(=O)/C=C/CN(C)C)[C@H](CC#N)C5)c43)c2F)c1C (single isomer, unassigned) [Example 80a]
≤ 100	≤ 100	–	C=C(F)C(=O)N1CC[C@H](n2ncc3c(N4CC(C)(N(C)C)C4)nc4c(F)c(-c5c(C)c(C)cc6[nH]ncc56)c(Cl)cc4c32)C[C@H]1CC#N (single isomer, unassigned) [Example 81a]
≤ 100	≤ 100	–	CC#CC(=O)N1CC[C@H](n2ncc3c(N4CC(C)(N(C)C)C4)nc4c(F)c(-c5c(C)c(C)cc6[nH]ncc56)c(Cl)cc4c32)C[C@H]1CC#N (single isomer, unassigned) [Example 82a]
≤ 100	≤ 100	–	COC/C=C/C(=O)N1CC[C@H](n2ncc3c(N4CC(C)(N(C)C)C4)nc4c(F)c(-c5c(C)c(C)cc6[nH]ncc56)c(Cl)cc4c32)C[C@H]1CC#N (single isomer, unassigned) [Example 83a]
≤ 100	≤ 100	–	Cc1cc2[nH]ncc2c(-c2c(Cl)cc3c(nc(N4CC(C)(N(C)C)C4)c4cnn([C@H]5CCN(C(=O)/C=C/CN(C)C)[C@H](CC#N)C5)c43)c2F)c1C (single isomer, unassigned) [Example 84a]
≤ 100	≤ 100	–	CC#CC(=O)N1CC[C@H](n2ccc3c(OC[C@@H]4CCCN4C)nc4c(F)c(-c5c(C)c(C)cc6[nH]ncc56)c(Cl)cc4c32)C[C@H]1CC#N (single isomer, unassigned) [Example 90a]
–	≤ 100	††	C=CC(=O)N1CCC(n2ncc3cnc4c(F)c(-c5cc(O)cc6ccccc56)c(Cl)cc4c32)CC1 [Example 1]
≤ 100	≤ 100	–	C=CC(=O)N1CCC(n2ncc3c(N4CC(N(C)C)C4)nc4c(F)c(-c5cc(O)cc6ccccc56)c(Cl)cc4c32)CC1 [Example 2, 1-(4-(8-chloro-4-(3-(dimethylamino)azetidin-1-yl)-6-fluoro-7-(3-hydroxynaphthalen-1-yl)-1H-pyrazolo[4,3-c]quinolin-1-yl)piperidin-1-yl)prop-2-en-1-one]
≤ 100	≤ 100	–	C=CC(=O)N1CC[C@H](n2ncc3c(N4CC(N(C)C)C4)nc4c(F)c(-c5cncc6ccccc56)c(Cl)cc4c32)C[C@H]1CC#N [Example 22, 2-((2S,4S)-1-acryloyl-4-(8-chloro-4-(3-(dimethylamino)azetidin-1-yl)-6-fluoro-7-(isoquinolin-4-yl)-1H-pyrazolo[4,3-c]quinolin-1-yl)piperidin-2-yl)acetonitrile]
